Results taken from ChEMBL document CHEMBL1909046, “DrugMatrix in vitro pharmacology data”.

Key:
Melanocortin receptor 4 = Melanocortin receptor 4 (Homo sapiens, UniProt P32245); assay type: cell membranes, HEK293, Membrane; settings: hek293; further: in other assays of this panel Not Active means under 50% inhibition at 10 µM
[1] = target: T1, Muscarinic acetylcholine receptor M4 (Homo sapiens, UniProt P08173); assay type: cell membranes, CHO-K1, Membrane; settings: cho-k1; further: in other assays of this panel Not Active means under 50% inhibition at 10 µM
T1 sequence (P08173 whole entry): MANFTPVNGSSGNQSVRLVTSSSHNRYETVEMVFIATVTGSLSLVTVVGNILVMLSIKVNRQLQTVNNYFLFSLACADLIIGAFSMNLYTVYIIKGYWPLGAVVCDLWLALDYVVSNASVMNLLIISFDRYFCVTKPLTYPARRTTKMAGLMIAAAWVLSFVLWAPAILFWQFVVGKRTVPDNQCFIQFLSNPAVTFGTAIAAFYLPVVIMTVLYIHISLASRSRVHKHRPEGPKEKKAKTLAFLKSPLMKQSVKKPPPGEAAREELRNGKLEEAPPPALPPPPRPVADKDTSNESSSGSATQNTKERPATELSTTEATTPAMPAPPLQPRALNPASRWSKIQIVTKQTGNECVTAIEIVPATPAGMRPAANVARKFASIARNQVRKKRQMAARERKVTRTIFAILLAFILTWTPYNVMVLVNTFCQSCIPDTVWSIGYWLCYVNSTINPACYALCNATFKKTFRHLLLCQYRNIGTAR

[2] = target: T2, Cholecystokinin receptor type A (Homo sapiens, UniProt P32238); assay type: cell membranes, Membrane; settings: 1321-n1; further: in other assays of this panel Not Active means under 50% inhibition at 10 µM
T2 sequence (P32238 whole entry): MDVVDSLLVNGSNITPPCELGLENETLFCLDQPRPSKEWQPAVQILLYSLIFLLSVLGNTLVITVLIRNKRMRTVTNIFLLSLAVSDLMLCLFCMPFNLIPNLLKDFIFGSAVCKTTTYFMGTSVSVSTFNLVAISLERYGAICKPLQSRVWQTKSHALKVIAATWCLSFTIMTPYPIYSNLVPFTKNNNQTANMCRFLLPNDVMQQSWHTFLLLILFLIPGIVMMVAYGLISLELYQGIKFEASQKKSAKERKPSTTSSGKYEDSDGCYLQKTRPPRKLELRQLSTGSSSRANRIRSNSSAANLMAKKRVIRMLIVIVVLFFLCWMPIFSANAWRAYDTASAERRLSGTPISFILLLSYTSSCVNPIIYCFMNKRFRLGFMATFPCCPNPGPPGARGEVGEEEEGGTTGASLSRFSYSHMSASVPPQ

[3] = DRUGMATRIX: Phosphodiesterase PDE4 enzyme inhibition (substrate: [3H]cAMP + cAMP); settings: u-937; Not Active = under 50% inhibition at 10 µM
[4] = target: Beta-1 adrenergic receptor (Homo sapiens, UniProt P08588); assay: DRUGMATRIX: Adrenergic beta1 radioligand binding (ligand: [125I] Cyanopindolol); assay type: cell membranes, CHO-K1, Membrane; settings: cho-k1; Not Active = under 50% inhibition at 10 µM
Estrogen receptor = target: T3, Estrogen receptor (Homo sapiens, UniProt P03372); settings: sf9; further: in other assays of this panel Not Active means under 50% inhibition at 10 µM
T3 sequence (P03372 whole entry): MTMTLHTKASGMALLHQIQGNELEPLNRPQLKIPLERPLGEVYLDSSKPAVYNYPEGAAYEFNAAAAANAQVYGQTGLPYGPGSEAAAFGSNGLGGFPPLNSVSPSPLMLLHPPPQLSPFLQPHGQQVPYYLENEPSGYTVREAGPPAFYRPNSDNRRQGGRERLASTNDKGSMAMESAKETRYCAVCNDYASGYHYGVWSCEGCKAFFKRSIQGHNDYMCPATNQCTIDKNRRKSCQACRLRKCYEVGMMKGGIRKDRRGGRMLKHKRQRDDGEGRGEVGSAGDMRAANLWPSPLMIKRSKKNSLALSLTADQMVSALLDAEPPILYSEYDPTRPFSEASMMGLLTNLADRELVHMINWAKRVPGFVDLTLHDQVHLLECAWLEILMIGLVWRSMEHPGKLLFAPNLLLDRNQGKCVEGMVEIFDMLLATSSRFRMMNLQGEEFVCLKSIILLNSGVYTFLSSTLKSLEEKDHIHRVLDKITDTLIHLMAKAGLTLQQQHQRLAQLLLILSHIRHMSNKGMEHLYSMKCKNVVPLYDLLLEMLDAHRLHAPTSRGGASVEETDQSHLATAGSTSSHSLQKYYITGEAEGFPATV

Sequence of Beta-1 adrenergic receptor (P08588 whole entry): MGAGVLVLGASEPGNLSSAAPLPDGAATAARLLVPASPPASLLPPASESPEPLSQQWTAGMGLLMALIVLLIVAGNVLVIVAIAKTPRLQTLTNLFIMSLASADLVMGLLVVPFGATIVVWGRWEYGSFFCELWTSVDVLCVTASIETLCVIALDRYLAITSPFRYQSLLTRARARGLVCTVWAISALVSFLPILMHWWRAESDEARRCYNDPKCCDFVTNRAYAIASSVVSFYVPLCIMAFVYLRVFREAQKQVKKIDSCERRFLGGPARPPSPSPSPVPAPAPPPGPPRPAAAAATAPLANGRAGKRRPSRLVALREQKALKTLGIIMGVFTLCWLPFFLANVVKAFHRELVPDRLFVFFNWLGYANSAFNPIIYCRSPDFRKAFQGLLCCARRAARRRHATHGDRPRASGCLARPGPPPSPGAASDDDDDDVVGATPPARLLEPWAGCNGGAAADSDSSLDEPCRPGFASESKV
Sequence of Melanocortin receptor 4 (P32245 whole entry): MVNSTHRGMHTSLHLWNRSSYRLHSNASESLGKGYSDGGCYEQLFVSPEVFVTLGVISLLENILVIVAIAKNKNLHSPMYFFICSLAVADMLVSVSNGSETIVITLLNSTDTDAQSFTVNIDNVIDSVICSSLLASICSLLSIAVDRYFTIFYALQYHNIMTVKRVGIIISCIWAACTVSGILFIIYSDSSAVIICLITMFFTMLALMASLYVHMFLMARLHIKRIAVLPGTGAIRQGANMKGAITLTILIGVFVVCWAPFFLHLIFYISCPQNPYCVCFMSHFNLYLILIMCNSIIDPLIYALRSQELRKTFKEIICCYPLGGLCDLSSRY

CCC(C)n1ncn(-c2ccc(N3CCN(c4ccc(OCC5COC(Cn6cncn6)(c6ccc(Cl)cc6Cl)O5)cc4)CC3)cc2)c1=O (configuration not stated) [ITRACONAZOLE]
Not Active: IC50 (Melanocortin receptor 4) | IC50 [1] | IC50 [2] | IC50 [3] | Ki [3] | IC50 [4] | IC50 (Estrogen receptor)

Nc1c(Br)cc(Br)cc1CN[C@H]1CC[C@H](O)CC1 [AMBROXOL]
Not Active: IC50 (Melanocortin receptor 4) | IC50 [1] | IC50 [2] | IC50 [3] | Ki [3] | IC50 [4] | IC50 (Estrogen receptor)

Cc1ccc(N(CC2=NCCN2)c2cccc(O)c2)cc1 [PHENTOLAMINE]
Not Active: IC50 (Melanocortin receptor 4) | IC50 [1] | IC50 [2] | IC50 [3] | Ki [3] | IC50 [4] | IC50 (Estrogen receptor)

Nc1nc2c(ncn2CCC(CO)CO)c(=O)[nH]1 [PENCICLOVIR]
Not Active: IC50 (Melanocortin receptor 4) | IC50 [1] | IC50 [2] | IC50 [3] | Ki [3] | IC50 [4] | IC50 (Estrogen receptor)

CCOc1ccc(NC(C)=O)cc1 [PHENACETIN]
Not Active: IC50 (Melanocortin receptor 4) | IC50 [1] | IC50 [2] | IC50 [3] | Ki [3] | IC50 [4] | IC50 (Estrogen receptor)

Cc1cc(C(C#N)c2ccc(Cl)cc2)c(Cl)cc1NC(=O)c1cc(I)cc(I)c1O (configuration not stated) [CLOSANTEL]
Not Active: IC50 (Melanocortin receptor 4) | IC50 [1] | IC50 [2] | IC50 [3] | Ki [3] | IC50 [4] | IC50 (Estrogen receptor)

CN(C)C(=O)Oc1cc(OC(=O)N(C)C)cc(C(O)CNC(C)(C)C)c1 (configuration not stated) [BAMBUTEROL]
Not Active: IC50 (Melanocortin receptor 4) | IC50 [1] | IC50 [2] | IC50 [3] | Ki [3] | IC50 [4] | IC50 (Estrogen receptor)

CC1(C)S[C@@H]2[C@H](NC(=O)Cc3ccccc3)C(=O)N2[C@H]1C(=O)O [PENICILLIN G]
Not Active: IC50 (Melanocortin receptor 4) | IC50 [1] | IC50 [2] | IC50 [3] | Ki [3] | IC50 [4] | IC50 (Estrogen receptor)

c1ccc2c(c1)c1cccc3ccc4cccc2c4c31 [BENZO[E]PYRENE]
Not Active: IC50 (Melanocortin receptor 4) | IC50 [1] | IC50 [2] | IC50 [3] | Ki [3] | IC50 [4] | IC50 (Estrogen receptor)

Sc1ncnc2nc[nH]c12 [MERCAPTOPURINE ANHYDROUS]
Not Active: IC50 (Melanocortin receptor 4) | IC50 [1] | IC50 [2] | IC50 [3] | Ki [3] | IC50 [4] | IC50 (Estrogen receptor)

CC1(C)O[C@@H]2C[C@H]3[C@@H]4CCC5=CC(=O)CC[C@]5(C)[C@@]4(F)[C@@H](O)C[C@]3(C)[C@]2(C(=O)CCl)O1 [HALCINONIDE]
Not Active: IC50 (Melanocortin receptor 4) | IC50 [1] | IC50 [2] | IC50 [3] | Ki [3] | IC50 [4] | IC50 (Estrogen receptor)
